Assay results published in patent publication US20220313769A1, “NEW ANTIOXIDANT COMPOSITION FOR WOUND HEALING” (HISTOCELL, S.L., priority 2019, published 2022).

Test system: epithelial fibroblasts
Test: In vitro wound healing assay or scratch assay
Assay type: cell-based
Conditions: 0.001% lycopene compared to 5 mM NAC
Description: The in vitro wound healing assay or scratch assay measures the capacity of a product to stimulate cellular proliferation (epithelial fibroblasts or keratinocytes) and close a gash without cells in a cellular monolayer in the culture tissue. For the gash to be homogeneous in all the wells, the cells are seeded in wells containing silicone blocks of the same size, which prevent adhesion of the cells in the area occupied by the block. Thus, epithelial fibroblasts were seeded in 24-well plates with the silicone blocks or barriers. After incubating for 12 hours, the barriers were removed and the cells were incubated for 24-72 hours with medium that contained the components separately or combined [different concentrations of locust bean galactomannan (LBG, 0.2, 0.1 and 0.01%), lycopene (0.001%)] and acetylcysteine (NAC, 5 mM). The entire surface of the well covered by the cells or the number of cells was estimated based on the images obtained of the wells with different treatments.

Question: Which “Capacity of migration of the fibroblasts (FIG. 2B legend)” value does the source give for CC(C)=CCC/C(C)=C/C=C/C(C)=C/C=C/C(C)=C/C=C/C=C(C)/C=C/C=C(C)/C=C/C=C(\C)CCC=C(C)C [lycopene] here?
Answer: The value was “higher capacity of migration”.

Question: What about the “In vitro healing (FIG. 2B)” value of the same compound?
Answer: The value was “induced in vitro healing better”.
